Source: PubChem BioAssay (NCI)
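Cultured in 96-well plates, cells were exposed to test compound for 48 hours across five concentrations. TGI denotes the concentration required for complete inhibition of growth.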

Key:
Test in all cases: growth of human tumour cells (NCI), 48 h
MOLT-4 leukemia = tested on: MOLT-4 leukemia
SNB-75 CNS = tested on: SNB-75 CNS
TK-10 renal = tested on: TK-10 renal
HL-60(TB) leukemia = tested on: HL-60(TB) leukemia
T-47D breast = tested on: T-47D breast
LOX IMVI melanoma = tested on: LOX IMVI melanoma
SF-539 CNS = tested on: SF-539 CNS
UACC-257 melanoma = tested on: UACC-257 melanoma
OVCAR-5 ovarian = tested on: OVCAR-5 ovarian
RPMI-8226 leukemia = tested on: RPMI-8226 leukemia
K-562 leukemia = tested on: K-562 leukemia
MALME-3M melanoma = tested on: MALME-3M melanoma
ACHN renal = tested on: ACHN renal
EKVX NSCLC = tested on: EKVX NSCLC
SK-MEL-2 melanoma = tested on: SK-MEL-2 melanoma
CAKI-1 renal = tested on: CAKI-1 renal
SF-268 CNS = tested on: SF-268 CNS
DU-145 prostate = tested on: DU-145 prostate
SNB-19 CNS = tested on: SNB-19 CNS
A498 renal = tested on: A498 renal
SK-MEL-5 melanoma = tested on: SK-MEL-5 melanoma
SK-MEL-28 melanoma = tested on: SK-MEL-28 melanoma
NCI-H23 lung = tested on: NCI-H23 lung
OVCAR-3 ovarian = tested on: OVCAR-3 ovarian
U251 CNS = tested on: U251 CNS
786-0 renal = tested on: 786-0 renal
A549 NSCLC = tested on: A549 NSCLC
HOP-62 NSCLC = tested on: HOP-62 NSCLC
SR leukemia = tested on: SR leukemia
HCT-116 colon = tested on: HCT-116 colon
SF-295 CNS = tested on: SF-295 CNS
PC-3 prostate = tested on: PC-3 prostate
HS 578T breast = tested on: HS 578T breast
NCI/ADR-RES ovarian = tested on: NCI/ADR-RES ovarian
HCT-15 colon = tested on: HCT-15 colon
SW-620 colon = tested on: SW-620 colon
CCRF-CEM leukemia = tested on: CCRF-CEM leukemia
OVCAR-8 ovarian = tested on: OVCAR-8 ovarian
KM12 colon = tested on: KM12 colon
SN12C renal = tested on: SN12C renal
UO-31 renal = tested on: UO-31 renal
MDA-N = tested on: MDA-N
IGROV1 ovarian = tested on: IGROV1 ovarian
COLO 205 colon = tested on: COLO 205 colon
MDA-MB-231 breast = tested on: MDA-MB-231 breast
MCF7 breast = tested on: MCF7 breast
SK-OV-3 ovarian = tested on: SK-OV-3 ovarian
NCI-H460 lung = tested on: NCI-H460 lung
HCC-2998 colon = tested on: HCC-2998 colon
HT29 colon = tested on: HT29 colon
M14 melanoma = tested on: M14 melanoma
OVCAR-4 ovarian = tested on: OVCAR-4 ovarian
RXF 393 renal = tested on: RXF 393 renal
MDA-MB-435 = tested on: MDA-MB-435
NCI-H226 lung = tested on: NCI-H226 lung
NCI-H522 lung = tested on: NCI-H522 lung
UACC-62 melanoma = tested on: UACC-62 melanoma
HOP-92 NSCLC = tested on: HOP-92 NSCLC

Compound `CC1CN=C(N(Cc2ccc(F)cc2)C(=O)Nc2ccc(Cl)cc2)S1` (stereo not drawn) has a TGI (MOLT-4 leukemia) of over 100 µM, a TGI (SNB-75 CNS) of over 100 µM and a TGI (TK-10 renal) of over 100 µM. It also gave a TGI (HL-60(TB) leukemia) of 91 µM, a TGI (T-47D breast) of over 100 µM and a TGI (LOX IMVI melanoma) of 54.5 µM. The TGI (SF-539 CNS) was over 100 µM, the TGI (UACC-257 melanoma) was over 100 µM and the TGI (OVCAR-5 ovarian) was over 100 µM. The TGI (RPMI-8226 leukemia) was over 100 µM, the TGI (K-562 leukemia) was over 100 µM and the TGI (MALME-3M melanoma) was over 100 µM. It also gave a TGI (ACHN renal) of over 100 µM, a TGI (EKVX NSCLC) of 69.2 µM and a TGI (SK-MEL-2 melanoma) of 37.5 µM. For the same compound, the TGI (CAKI-1 renal) was over 100 µM, the TGI (SF-268 CNS) was over 100 µM and the TGI (DU-145 prostate) was over 100 µM. The TGI (SNB-19 CNS) was over 100 µM, the TGI (A498 renal) was 67.4 µM and the TGI (SK-MEL-5 melanoma) was 29.4 µM. The TGI (SK-MEL-28 melanoma) was 71.7 µM, the TGI (NCI-H23 lung) was over 100 µM and the TGI (OVCAR-3 ovarian) was over 100 µM. The TGI (U251 CNS) was over 100 µM, the TGI (786-0 renal) was over 100 µM and the TGI (A549 NSCLC) was over 100 µM. It also gave a TGI (HOP-62 NSCLC) of over 100 µM, a TGI (SR leukemia) of over 100 µM and a TGI (HCT-116 colon) of over 100 µM. It also gave a TGI (SF-295 CNS) of over 100 µM, a TGI (PC-3 prostate) of over 100 µM and a TGI (HS 578T breast) of over 100 µM. For the same compound, the TGI (NCI/ADR-RES ovarian) was over 100 µM, the TGI (HCT-15 colon) was over 100 µM and the TGI (SW-620 colon) was over 100 µM. The TGI (CCRF-CEM leukemia) was over 100 µM, the TGI (OVCAR-8 ovarian) was over 100 µM and the TGI (KM12 colon) was over 100 µM. For the same compound, the TGI (SN12C renal) was over 100 µM, the TGI (UO-31 renal) was over 100 µM and the TGI (MDA-N) was 61.1 µM. The TGI (IGROV1 ovarian) was over 100 µM, the TGI (COLO 205 colon) was over 100 µM and the TGI (MDA-MB-231 breast) was over 100 µM. The TGI (MCF7 breast) was 64 µM, the TGI (SK-OV-3 ovarian) was over 100 µM and the TGI (NCI-H460 lung) was over 100 µM. For the same compound, the TGI (HCC-2998 colon) was 76.6 µM, the TGI (HT29 colon) was 65.8 µM and the TGI (M14 melanoma) was 17.4 µM. For the same compound, the TGI (OVCAR-4 ovarian) was over 100 µM.

`CN(NC(=O)/C(=C/c1ccc(Cl)cc1)NC(=O)c1ccccc1)c1cn[nH]c(=O)c1Cl` showed a TGI (RXF 393 renal) of over 100 µM, a TGI (MOLT-4 leukemia) of 84.2 µM and a TGI (MDA-MB-435) of over 100 µM. The TGI (SNB-75 CNS) was over 100 µM, the TGI (TK-10 renal) was over 100 µM and the TGI (HL-60(TB) leukemia) was 41.6 µM. For the same compound, the TGI (NCI-H226 lung) was over 100 µM, the TGI (LOX IMVI melanoma) was over 100 µM and the TGI (SF-539 CNS) was over 100 µM. For the same compound, the TGI (UACC-257 melanoma) was over 100 µM, the TGI (OVCAR-5 ovarian) was over 100 µM and the TGI (RPMI-8226 leukemia) was 53.5 µM. For the same compound, the TGI (K-562 leukemia) was over 100 µM, the TGI (MALME-3M melanoma) was over 100 µM and the TGI (ACHN renal) was over 100 µM. It also gave a TGI (EKVX NSCLC) of over 100 µM, a TGI (SK-MEL-2 melanoma) of over 100 µM and a TGI (CAKI-1 renal) of over 100 µM. For the same compound, the TGI (SF-268 CNS) was over 100 µM, the TGI (DU-145 prostate) was over 100 µM and the TGI (SNB-19 CNS) was over 100 µM. It also gave a TGI (NCI-H522 lung) of 56.6 µM, a TGI (SK-MEL-5 melanoma) of over 100 µM and a TGI (SK-MEL-28 melanoma) of over 100 µM. It also gave a TGI (NCI-H23 lung) of over 100 µM, a TGI (OVCAR-3 ovarian) of over 100 µM and a TGI (U251 CNS) of over 100 µM. For the same compound, the TGI (786-0 renal) was over 100 µM, the TGI (A549 NSCLC) was over 100 µM and the TGI (HOP-62 NSCLC) was over 100 µM. The TGI (SR leukemia) was over 100 µM, the TGI (UACC-62 melanoma) was over 100 µM and the TGI (HCT-116 colon) was over 100 µM. It also gave a TGI (SF-295 CNS) of over 100 µM, a TGI (PC-3 prostate) of over 100 µM and a TGI (HOP-92 NSCLC) of over 100 µM. It also gave a TGI (HS 578T breast) of over 100 µM, a TGI (NCI/ADR-RES ovarian) of over 100 µM and a TGI (HCT-15 colon) of over 100 µM. For the same compound, the TGI (SW-620 colon) was over 100 µM, the TGI (CCRF-CEM leukemia) was over 100 µM and the TGI (OVCAR-8 ovarian) was over 100 µM. For the same compound, the TGI (KM12 colon) was over 100 µM, the TGI (SN12C renal) was over 100 µM and the TGI (UO-31 renal) was over 100 µM. It also gave a TGI (MDA-N) of over 100 µM, a TGI (IGROV1 ovarian) of over 100 µM and a TGI (COLO 205 colon) of over 100 µM. It also gave a TGI (MDA-MB-231 breast) of over 100 µM, a TGI (MCF7 breast) of over 100 µM and a TGI (SK-OV-3 ovarian) of over 100 µM. For the same compound, the TGI (NCI-H460 lung) was over 100 µM, the TGI (HT29 colon) was over 100 µM and the TGI (M14 melanoma) was over 100 µM. It also gave a TGI (OVCAR-4 ovarian) of over 100 µM.

Compound `N#C/C(C(=O)Nc1ccccc1)=C(/N)N1CCCC1` has a TGI (RXF 393 renal) of over 100 µM, a TGI (MOLT-4 leukemia) of over 100 µM and a TGI (MDA-MB-435) of over 100 µM. For the same compound, the TGI (TK-10 renal) was over 100 µM, the TGI (HL-60(TB) leukemia) was over 100 µM and the TGI (NCI-H226 lung) was over 100 µM. The TGI (T-47D breast) was over 100 µM, the TGI (LOX IMVI melanoma) was over 100 µM and the TGI (SF-539 CNS) was over 100 µM. The TGI (UACC-257 melanoma) was over 100 µM, the TGI (OVCAR-5 ovarian) was over 100 µM and the TGI (RPMI-8226 leukemia) was over 100 µM. The TGI (K-562 leukemia) was over 100 µM, the TGI (MALME-3M melanoma) was over 100 µM and the TGI (ACHN renal) was over 100 µM. The TGI (EKVX NSCLC) was over 100 µM, the TGI (SK-MEL-2 melanoma) was over 100 µM and the TGI (CAKI-1 renal) was over 100 µM. For the same compound, the TGI (SF-268 CNS) was over 100 µM, the TGI (DU-145 prostate) was over 100 µM and the TGI (SNB-19 CNS) was over 100 µM. For the same compound, the TGI (A498 renal) was over 100 µM, the TGI (NCI-H522 lung) was over 100 µM and the TGI (SK-MEL-5 melanoma) was over 100 µM. For the same compound, the TGI (SK-MEL-28 melanoma) was over 100 µM, the TGI (NCI-H23 lung) was over 100 µM and the TGI (OVCAR-3 ovarian) was over 100 µM. The TGI (U251 CNS) was over 100 µM, the TGI (786-0 renal) was over 100 µM and the TGI (A549 NSCLC) was over 100 µM. The TGI (HOP-62 NSCLC) was over 100 µM, the TGI (SR leukemia) was over 100 µM and the TGI (UACC-62 melanoma) was over 100 µM. The TGI (HCT-116 colon) was over 100 µM, the TGI (SF-295 CNS) was over 100 µM and the TGI (PC-3 prostate) was over 100 µM. It also gave a TGI (HOP-92 NSCLC) of over 100 µM, a TGI (HS 578T breast) of over 100 µM and a TGI (NCI/ADR-RES ovarian) of over 100 µM. It also gave a TGI (HCT-15 colon) of over 100 µM, a TGI (SW-620 colon) of over 100 µM and a TGI (CCRF-CEM leukemia) of over 100 µM. It also gave a TGI (OVCAR-8 ovarian) of over 100 µM, a TGI (KM12 colon) of over 100 µM and a TGI (SN12C renal) of over 100 µM. It also gave a TGI (UO-31 renal) of over 100 µM, a TGI (MDA-N) of over 100 µM and a TGI (IGROV1 ovarian) of over 100 µM. The TGI (COLO 205 colon) was over 100 µM, the TGI (MDA-MB-231 breast) was over 100 µM and the TGI (SK-OV-3 ovarian) was over 100 µM. It also gave a TGI (NCI-H460 lung) of over 100 µM, a TGI (HCC-2998 colon) of over 100 µM and a TGI (HT29 colon) of over 100 µM. The TGI (M14 melanoma) was over 100 µM and the TGI (OVCAR-4 ovarian) was over 100 µM.
